For assay [1], the target named is T1, Alpha-2B adrenergic receptor (Homo sapiens, UniProt P18089).
T1 sequence (P18089 whole entry): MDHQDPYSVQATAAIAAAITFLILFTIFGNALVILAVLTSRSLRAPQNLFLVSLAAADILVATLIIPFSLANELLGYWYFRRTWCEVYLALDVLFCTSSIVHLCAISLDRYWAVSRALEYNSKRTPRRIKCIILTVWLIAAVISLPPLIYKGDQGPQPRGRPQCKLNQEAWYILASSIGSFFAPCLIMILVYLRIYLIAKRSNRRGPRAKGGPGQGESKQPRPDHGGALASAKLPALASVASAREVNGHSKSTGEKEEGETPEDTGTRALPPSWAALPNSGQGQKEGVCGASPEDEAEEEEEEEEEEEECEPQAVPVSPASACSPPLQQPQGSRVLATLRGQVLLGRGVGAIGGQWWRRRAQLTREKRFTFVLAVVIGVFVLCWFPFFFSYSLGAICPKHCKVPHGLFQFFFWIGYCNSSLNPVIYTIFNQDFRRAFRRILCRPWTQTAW

For assay [2], the target named is T2, 5-hydroxytryptamine receptor 2A (Homo sapiens, UniProt P28223). It counts as functional, cell-based.
For assay [3], the target named is T2, 5-hydroxytryptamine receptor 2A. It counts as functional, cell-based. The source holds these as a separate data set.
The next assay deals with Histamine H1 receptor (Homo sapiens, UniProt P35367).
The target in assay [4] is T3, Peroxisome proliferator-activated receptor gamma (Homo sapiens, UniProt P37231).
T3 sequence (P37231 whole entry): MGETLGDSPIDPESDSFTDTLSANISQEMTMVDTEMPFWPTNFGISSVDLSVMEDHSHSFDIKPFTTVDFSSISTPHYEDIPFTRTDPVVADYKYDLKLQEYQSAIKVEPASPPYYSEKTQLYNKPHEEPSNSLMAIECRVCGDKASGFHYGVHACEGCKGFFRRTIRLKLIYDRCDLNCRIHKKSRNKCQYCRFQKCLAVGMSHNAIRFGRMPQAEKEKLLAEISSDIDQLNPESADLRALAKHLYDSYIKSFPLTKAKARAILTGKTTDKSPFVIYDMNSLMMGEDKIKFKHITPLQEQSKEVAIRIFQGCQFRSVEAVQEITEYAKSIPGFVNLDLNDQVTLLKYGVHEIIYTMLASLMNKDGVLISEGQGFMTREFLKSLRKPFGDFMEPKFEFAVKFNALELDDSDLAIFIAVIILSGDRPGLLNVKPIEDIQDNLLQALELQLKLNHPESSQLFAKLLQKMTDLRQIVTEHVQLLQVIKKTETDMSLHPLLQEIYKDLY
It counts as functional.

In assay [5] the target is Gamma-aminobutyric acid receptor subunit alpha-1/alpha-2/beta-2/gamma-2 (Homo sapiens, UniProt P14867+P18507+P47869+P47870). It counts as functional, cell-based.
Assay [6] concerns the target Muscarinic acetylcholine receptor M3 (Homo sapiens, UniProt P20309).
Assay [7] has as its target T4, Neuropeptide Y receptor type 2 (Homo sapiens, UniProt P49146).
T4 sequence (P49146 whole entry): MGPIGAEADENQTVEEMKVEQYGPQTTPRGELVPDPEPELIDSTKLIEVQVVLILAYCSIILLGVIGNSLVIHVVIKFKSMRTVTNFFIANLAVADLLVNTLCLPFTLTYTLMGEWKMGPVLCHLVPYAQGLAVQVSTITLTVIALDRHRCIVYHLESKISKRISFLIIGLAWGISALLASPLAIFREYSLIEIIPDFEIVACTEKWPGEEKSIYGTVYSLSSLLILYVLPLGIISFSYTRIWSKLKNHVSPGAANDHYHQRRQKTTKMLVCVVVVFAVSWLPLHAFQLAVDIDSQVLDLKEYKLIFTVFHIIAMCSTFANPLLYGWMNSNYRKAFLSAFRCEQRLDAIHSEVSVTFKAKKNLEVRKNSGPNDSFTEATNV

In a further assay the target is T5, Androgen receptor (Homo sapiens, UniProt P10275).
T5 sequence (P10275 whole entry): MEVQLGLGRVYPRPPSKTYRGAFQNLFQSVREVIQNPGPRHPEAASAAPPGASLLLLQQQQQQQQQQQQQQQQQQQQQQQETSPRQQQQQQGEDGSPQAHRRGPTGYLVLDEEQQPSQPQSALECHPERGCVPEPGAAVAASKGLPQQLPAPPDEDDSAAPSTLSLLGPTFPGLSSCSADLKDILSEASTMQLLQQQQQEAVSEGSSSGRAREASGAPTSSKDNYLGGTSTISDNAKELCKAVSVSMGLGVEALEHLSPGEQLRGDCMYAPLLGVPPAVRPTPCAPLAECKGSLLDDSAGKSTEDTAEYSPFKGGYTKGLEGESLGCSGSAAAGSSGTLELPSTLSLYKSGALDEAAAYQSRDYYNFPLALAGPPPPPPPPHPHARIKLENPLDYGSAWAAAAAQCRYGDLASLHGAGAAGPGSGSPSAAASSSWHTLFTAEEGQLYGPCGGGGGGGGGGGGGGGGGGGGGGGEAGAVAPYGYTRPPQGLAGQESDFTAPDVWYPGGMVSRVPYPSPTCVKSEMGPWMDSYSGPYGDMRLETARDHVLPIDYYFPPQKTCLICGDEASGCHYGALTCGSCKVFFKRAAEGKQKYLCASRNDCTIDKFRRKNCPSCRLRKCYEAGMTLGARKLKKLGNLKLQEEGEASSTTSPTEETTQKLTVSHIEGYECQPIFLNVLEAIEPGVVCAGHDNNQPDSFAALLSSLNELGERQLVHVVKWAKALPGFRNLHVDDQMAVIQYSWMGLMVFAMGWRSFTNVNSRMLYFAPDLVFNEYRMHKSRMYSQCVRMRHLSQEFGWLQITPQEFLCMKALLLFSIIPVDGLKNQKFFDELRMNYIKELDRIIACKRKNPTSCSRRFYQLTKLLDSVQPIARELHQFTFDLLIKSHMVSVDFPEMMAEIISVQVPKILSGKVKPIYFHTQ
Note: assay procedure not described here.

Muscarinic acetylcholine receptor M3, sequence (P20309 whole entry): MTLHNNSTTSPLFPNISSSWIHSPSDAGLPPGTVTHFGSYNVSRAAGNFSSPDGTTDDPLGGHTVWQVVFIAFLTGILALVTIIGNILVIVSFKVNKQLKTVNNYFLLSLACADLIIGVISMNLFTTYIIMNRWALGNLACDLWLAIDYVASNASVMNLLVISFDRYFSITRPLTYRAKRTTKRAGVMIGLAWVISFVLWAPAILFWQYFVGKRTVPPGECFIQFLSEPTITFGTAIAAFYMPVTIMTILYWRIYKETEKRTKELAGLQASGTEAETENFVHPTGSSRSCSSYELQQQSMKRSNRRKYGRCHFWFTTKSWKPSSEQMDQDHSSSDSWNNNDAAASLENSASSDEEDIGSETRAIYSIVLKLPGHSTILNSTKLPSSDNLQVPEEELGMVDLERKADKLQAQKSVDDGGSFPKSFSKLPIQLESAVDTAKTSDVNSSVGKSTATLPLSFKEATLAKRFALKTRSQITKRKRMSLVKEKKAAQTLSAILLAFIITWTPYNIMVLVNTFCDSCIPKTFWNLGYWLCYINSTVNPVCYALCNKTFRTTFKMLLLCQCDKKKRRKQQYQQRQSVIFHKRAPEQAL
T2 sequence (P28223 whole entry): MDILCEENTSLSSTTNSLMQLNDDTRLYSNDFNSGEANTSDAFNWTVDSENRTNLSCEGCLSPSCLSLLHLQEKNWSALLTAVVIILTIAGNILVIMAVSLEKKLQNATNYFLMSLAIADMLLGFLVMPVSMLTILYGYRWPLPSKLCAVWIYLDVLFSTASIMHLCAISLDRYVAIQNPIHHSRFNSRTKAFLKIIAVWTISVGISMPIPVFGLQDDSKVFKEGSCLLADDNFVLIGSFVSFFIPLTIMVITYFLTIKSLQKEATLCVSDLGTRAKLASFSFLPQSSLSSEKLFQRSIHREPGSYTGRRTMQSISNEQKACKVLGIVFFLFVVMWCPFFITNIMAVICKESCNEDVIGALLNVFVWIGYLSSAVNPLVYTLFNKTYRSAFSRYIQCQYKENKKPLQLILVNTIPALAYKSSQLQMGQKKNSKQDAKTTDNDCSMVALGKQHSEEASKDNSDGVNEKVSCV
Gamma-aminobutyric acid receptor subunit alpha-1/alpha-2/beta-2/gamma-2, sequence (P14867 whole entry): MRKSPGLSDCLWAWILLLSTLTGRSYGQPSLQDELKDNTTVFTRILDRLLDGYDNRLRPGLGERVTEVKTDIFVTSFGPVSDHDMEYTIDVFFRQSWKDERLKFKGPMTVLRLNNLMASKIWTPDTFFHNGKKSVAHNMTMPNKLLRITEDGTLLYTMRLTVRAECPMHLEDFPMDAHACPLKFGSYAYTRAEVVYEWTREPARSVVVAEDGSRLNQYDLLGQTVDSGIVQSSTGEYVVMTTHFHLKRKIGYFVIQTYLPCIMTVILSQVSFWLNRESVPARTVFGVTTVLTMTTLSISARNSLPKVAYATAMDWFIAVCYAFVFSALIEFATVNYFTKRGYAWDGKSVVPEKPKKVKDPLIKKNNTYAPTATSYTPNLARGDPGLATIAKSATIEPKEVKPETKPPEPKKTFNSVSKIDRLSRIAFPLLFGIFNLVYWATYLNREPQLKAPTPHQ
Gamma-aminobutyric acid receptor subunit alpha-1/alpha-2/beta-2/gamma-2, sequence (P47870 whole entry): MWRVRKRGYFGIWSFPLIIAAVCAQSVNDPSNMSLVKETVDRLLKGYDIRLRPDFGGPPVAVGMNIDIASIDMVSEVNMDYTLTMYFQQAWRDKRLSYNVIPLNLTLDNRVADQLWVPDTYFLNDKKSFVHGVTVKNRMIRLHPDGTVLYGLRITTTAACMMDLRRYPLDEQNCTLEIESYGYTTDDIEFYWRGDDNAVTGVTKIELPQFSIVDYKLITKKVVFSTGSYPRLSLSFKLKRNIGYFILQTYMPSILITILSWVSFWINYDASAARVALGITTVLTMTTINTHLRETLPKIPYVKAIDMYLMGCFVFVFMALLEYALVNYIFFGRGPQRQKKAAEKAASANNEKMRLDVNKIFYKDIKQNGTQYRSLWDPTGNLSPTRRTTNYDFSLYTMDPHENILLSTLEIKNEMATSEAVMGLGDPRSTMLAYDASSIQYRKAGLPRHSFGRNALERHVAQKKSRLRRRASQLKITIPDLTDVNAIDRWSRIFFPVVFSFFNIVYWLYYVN
Gamma-aminobutyric acid receptor subunit alpha-1/alpha-2/beta-2/gamma-2, sequence (P18507 whole entry): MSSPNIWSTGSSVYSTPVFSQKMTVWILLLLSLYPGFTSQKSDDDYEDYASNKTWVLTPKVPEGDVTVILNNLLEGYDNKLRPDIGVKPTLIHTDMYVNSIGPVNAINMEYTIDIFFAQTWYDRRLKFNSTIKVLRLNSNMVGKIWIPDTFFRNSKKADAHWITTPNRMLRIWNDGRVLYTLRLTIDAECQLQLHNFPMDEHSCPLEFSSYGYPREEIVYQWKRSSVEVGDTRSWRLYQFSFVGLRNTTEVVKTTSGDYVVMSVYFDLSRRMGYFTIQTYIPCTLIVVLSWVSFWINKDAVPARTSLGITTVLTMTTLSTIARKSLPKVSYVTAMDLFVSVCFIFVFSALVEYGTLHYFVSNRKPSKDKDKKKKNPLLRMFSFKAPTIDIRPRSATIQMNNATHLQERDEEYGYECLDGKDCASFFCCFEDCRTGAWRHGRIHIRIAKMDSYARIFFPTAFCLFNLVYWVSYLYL
Gamma-aminobutyric acid receptor subunit alpha-1/alpha-2/beta-2/gamma-2, sequence (P47869 whole entry): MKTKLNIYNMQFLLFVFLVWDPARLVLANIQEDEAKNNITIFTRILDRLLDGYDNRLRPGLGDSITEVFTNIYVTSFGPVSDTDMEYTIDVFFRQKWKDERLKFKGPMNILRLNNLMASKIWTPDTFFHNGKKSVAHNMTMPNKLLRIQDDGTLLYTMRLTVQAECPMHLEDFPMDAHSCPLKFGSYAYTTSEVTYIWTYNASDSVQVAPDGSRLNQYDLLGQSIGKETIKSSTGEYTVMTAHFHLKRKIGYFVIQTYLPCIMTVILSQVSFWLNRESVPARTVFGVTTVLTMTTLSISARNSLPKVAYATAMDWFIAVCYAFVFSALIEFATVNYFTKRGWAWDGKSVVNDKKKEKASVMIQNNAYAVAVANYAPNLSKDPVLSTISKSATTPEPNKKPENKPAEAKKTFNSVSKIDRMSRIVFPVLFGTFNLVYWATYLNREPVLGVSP
Histamine H1 receptor, sequence (P35367 whole entry): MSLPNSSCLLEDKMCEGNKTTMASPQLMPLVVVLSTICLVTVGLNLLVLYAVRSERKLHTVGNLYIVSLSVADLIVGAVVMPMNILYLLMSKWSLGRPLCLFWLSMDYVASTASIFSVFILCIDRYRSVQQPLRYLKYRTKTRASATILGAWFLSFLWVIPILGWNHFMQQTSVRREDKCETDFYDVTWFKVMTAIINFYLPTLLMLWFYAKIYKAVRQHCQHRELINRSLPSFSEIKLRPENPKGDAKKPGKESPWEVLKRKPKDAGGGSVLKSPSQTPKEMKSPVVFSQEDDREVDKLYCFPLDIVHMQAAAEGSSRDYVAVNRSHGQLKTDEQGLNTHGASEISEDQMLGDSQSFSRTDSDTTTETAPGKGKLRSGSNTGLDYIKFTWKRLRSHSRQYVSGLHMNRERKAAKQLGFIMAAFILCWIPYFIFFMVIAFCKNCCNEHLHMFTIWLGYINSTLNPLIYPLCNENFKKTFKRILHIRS

In the case of `CCN1CCN(Cc2ccc(Nc3ncc(F)c(-c4cc(F)c5nc(C)n(C(C)C)c5c4)n3)nc2)CC1` [ABEMACICLIB], the AC50 in [1] was greater than 30 µM; in assay [2], greater than 30 µM; in assay [3], 28 µM; on Histamine H1 receptor it was 23 µM; in assay [4], greater than 30 µM; in assay [5], greater than 30 µM. In [6], this molecule returned an AC50 greater than 30 µM.
Take `CCCN(CCC)C(=O)Cc1c(-c2ccc(Cl)cc2)nc2ccc(Cl)cn12` [ALPIDEM]: the AC50 in assay [7] is greater than 10 µM; in [1] it was greater than 30 µM; on Histamine H1 receptor, greater than 30 µM; in assay [5], greater than 10 µM; in assay [6], greater than 30 µM.
On to `COc1cc2nccc(Oc3ccc(NC(=O)C4(C(=O)Nc5ccc(F)cc5)CC4)cc3)c2cc1OC` [CABOZANTINIB], for which the AC50 in assay [1] was greater than 30 µM; in [2], greater than 30 µM; in assay [3], 2.9 µM; on Androgen receptor, greater than 30 µM; at Histamine H1 receptor it was greater than 30 µM; in assay [4] it was greater than 30 µM. Besides, the AC50 in assay [5] and in assay [6] was greater than 30 µM each time.
Turning to `COc1ccccc1OCCNCC(O)COc1cccc2[nH]c3ccccc3c12` (stereo not given) [CARVEDILOL], the AC50 in assay [7] and in [4] was greater than 30 µM throughout.
For the molecule `C[C@@H](Oc1cc(-c2cnn(C3CCNCC3)c2)cnc1N)c1c(Cl)ccc(F)c1Cl` [CRIZOTINIB], the AC50 (in [7]; in assay [1]; at Histamine H1 receptor; in [4]; in assay [5]; in assay [6]) was greater than 30 µM throughout.
For the molecule `CN1C[C@H](C(=O)N[C@]2(C)O[C@@]3(O)[C@@H]4CCCN4C(=O)[C@H](Cc4ccccc4)N3C2=O)C=C2c3cccc4[nH]cc(c34)C[C@H]21` [ERGOTAMINE], the AC50 in assay [4] and in [5] was greater than 30 µM in each case.
For `CN(C)CCc1c[nH]c2ccc(Cn3cncn3)cc12` [RIZATRIPTAN], the AC50 was greater than 30 µM in [7]; greater than 30 µM in assay [1]; 7.75 µM in [2]; 5.79 µM on Histamine H1 receptor; greater than 30 µM in [5]; greater than 30 µM in [6].
Consider `CC(C)c1nc(N(C)S(C)(=O)=O)nc(-c2ccc(F)cc2)c1/C=C/[C@@H](O)C[C@@H](O)CC(=O)O` [ROSUVASTATIN], for which the AC50 (in assay [1]; in assay [2]; in [3]; at Histamine H1 receptor; in assay [4]; in [5]) was greater than 30 µM throughout. Further, the AC50 in assay [6] is greater than 30 µM.
As for `N[C@@H](CC(=O)N1CCn2c(nnc2C(F)(F)F)C1)Cc1cc(F)c(F)cc1F` [SITAGLIPTIN], the AC50 in assay [7] is greater than 10 µM; in assay [1] it was greater than 30 µM; on Histamine H1 receptor, greater than 30 µM; in assay [4], greater than 30 µM; in assay [5] it was greater than 30 µM; in assay [6], greater than 30 µM.
`OC[C@H]1O[C@@](CO)(O[C@H]2O[C@H](CO)[C@@H](O)[C@H](O)[C@H]2O)[C@@H](O)[C@@H]1O` [SUCROSE]: the half-maximal activity concentration (AC50) (in assay [1]; in [2]; in assay [3]; at Histamine H1 receptor; in assay [4]; in assay [5]) was greater than 30 µM each time. The molecule further registered an AC50 in assay [6] greater than 30 µM.
`C=CC[C@@H]1/C=C(\C)C[C@H](C)C[C@H](OC)[C@H]2O[C@@](O)(C(=O)C(=O)N3CCCC[C@H]3C(=O)O[C@H](/C(C)=C/[C@@H]3CC[C@@H](O)[C@H](OC)C3)[C@H](C)[C@@H](O)CC1=O)[C@H](C)C[C@@H]2OC` [TACROLIMUS ANHYDROUS]: the AC50 in [7], in [4] and in assay [5] was greater than 30 µM throughout.
As to `CC(S)C(=O)NCC(=O)O` (stereo not given) [TIOPRONIN], the AC50 (in [1]; in assay [2]; in assay [3]; on Histamine H1 receptor; in assay [4]; in assay [5]) was greater than 30 µM each time. The same molecule came in with an AC50 in assay [6] greater than 30 µM.
Take `C[C@H](CCC(=O)O)[C@H]1CC[C@H]2[C@@H]3[C@@H](O)C[C@@H]4C[C@H](O)CC[C@]4(C)[C@H]3CC[C@]12C` [URSODIOL]: the AC50 (in assay [1]; in assay [2]; in assay [3]; on Histamine H1 receptor; in [4]; in assay [5]) was greater than 30 µM throughout. Besides, the AC50 in assay [6] was greater than 30 µM.
Consider `Cc1onc(-c2ccccc2)c1-c1ccc(S(N)(=O)=O)cc1` [VALDECOXIB], for which the AC50 in assay [7] and in [4] was greater than 30 µM in each case.

For the origin of these results see ChEMBL document CHEMBL5291721, “A preclinical secondary pharmacology resource illuminates target-adverse drug reaction associations of marketed drugs” (Nat Commun, 2023).
